Test results taken from publication PMC12344774, “Ferrocenyl Quinoline-Benzimidazole Hybrids: A Multistage Strategy to Combat Drug-Resistant Malaria” (Inorganic Chemistry, 2025).
Several values for one entry are separate records, joined by “and”; a condition that tells them apart may be missing. Equal entries are not always repeated.

Legend:
[1] = Hydroxyl radical (ROS) generation with H2O2, DCFH2 fluorescent probe; conditions: 200 μM in 1:4 DMSO/PBS, H2O2 and H2DCF added, 30 min
From the text: Fluorogenic redox-sensitive probes are often employed to measure the presence of ROS, due to their low cost, ease of use, and nontoxicity, allowing for spectrofluorimetric measurements. 2′,7′-Dichlorodihydrofluorescein diacetate (DCFH2-DA) is the most widely used fluorogenic probe. Cleavage of the acetate groups, through alkaline hydrolysis, generates 2′,7′-dichlorodihydrofluorescein (DCFH2), which in the presence of oxidants, yields the highly fluorescent 2′,7′-dichlorofluorescein (DCF, λem = 523 nm). The DCFH2 probe reacts with an array of oxidants, making it an ideal indicator of general oxidative stress. […] The presence of these radicals was confirmed by monitoring the fluorescence over time (Figure ). […].
Stock solutions of DCFH2-DA were prepared to 1 mM in 100% DMSO and stored at −20 °C in the dark until use. The deacetylation of DCFH2-DA involved adding 2 μL of a 0.5 M NaOH solution to 200 μL of the 1 mM DCFH2-DA stock solution. The solution was mixed for 30 min, in the dark, at room temperature and then quenched with 800 μL of PBS buffer to obtain a 200 μM H2DCF 1:4 DMSO/PBS solution mixture.
[…]. The fluorometer was blanked using a 1:4 DMSO/PBS solution mixture. To identify hydroxyl radical production, 2 μL of a 0.5% H2O2 solution was added to 900 μL of the 200 μM complex solution in a cuvette at 25 °C. 100 μL of the prepared H2DCF solution (200 μM) was quickly added, and the readings recorded at 530 nm (emission wavelength), at 2 min intervals, over 30 min.

β-hematin formation = experiment: NP-40 detergent-mediated β-hematin formation inhibition assay (cell-free); type: biochemical; conditions: NP-40, pH 4.8, 5 h, 37 °C, read-out: β-hematin formation inhibition IC50 ± SEM
From the text: The ability of a compound to inhibit Hz formation can be predicted using the biomimetic cell-free NP40 detergent-mediated β-hematin formation inhibition assay. , This assay mimics the conditions in the acidic DV of the parasite and relies on the binding of pyridine to uncrystallized free heme to detect the inhibition of β-hematin formation using UV–vis spectroscopy (with absorbance measured at 405 nm). , Consequently, the ability of the ferrocenyl quinoline-benzimidazole hybrids (C1–C5) to inhibit β-hematin (synthetic Hz) formation was investigated as a potential mechanism of antiplasmodial action.
The β-hematin formation inhibition assay was modified from the method reported by Sandlin et al. , Stock solutions of the respective test compounds were prepared to 10 mM, in 100% DMSO, with the exception of CQ (used in the salt form, CQDP), which was prepared in Milli-Q water. […] NP-40 is a detergent used to mediate the formation of β-hematin. The solution in column 12 was then serially diluted 2-fold, through to column 2, to give a total of 11 concentrations. Column 1 contained 0 μM of the test compound and thus served as a blank. […] A 178.8 μL aliquot of this hematin suspension was added to 20.0 mL of a 2 M acetate buffer (pH = 4.8) and 100 μL of this solution added to each well. The plates were then covered and incubated for 5 h, at 37 °C. The assay was analyzed using the pyridine-ferrochrome method developed by Ncokazi and Egan. A solution containing water/acetone/2 M HEPES buffer (pH 7.4)/pyridine, in a v/v ratio of 2/2/1/5, was prepared and 32 μL was added to all wells, followed by 60 μL of acetone. The absorbance values were then measured at 405 nm, the results plotted using GraphPad Prism (v5), and the IC50 values obtained using a sigmoidal dose–response curve fitting analysis.

[2] = system: Mature gametocytes (>95% stage V); experiment: microbe, parasite or virus in culture; type: cell-based, Plasmodium falciparum; conditions: 48 h drug pressure; for % Inhibition, mature gametocytes: maximum inhibition at 10 μM
Protocol: (§1) Compounds are diluted 3-fold in at least a 9-point serial dilution series starting at 20 μM, with a nonlethal DMSO concentration of <0.1% maintained. Luciferase activity was determined in 30 μL parasite lysates by adding 30 μL luciferin substrate (Promega Luciferase Assay System) at room temperature and detection of resultant bioluminescence at an integration constant of 10 s with the GloMax-Multi + Detection System with Instinct Software. Methylene blue (5 μM) and the clinical antimalarial candidate MMV390048 (5 μM) were used as controls. IC50 values were determined in GraphPad Prism using a nonlinear regression fit with variable slope (4-parameter) on the dose–response data.
(§2) Assay quality parameters are evaluated for each assay, including Z′-factors (data quality compared to reproducibility using signal, noise, and background parameters; accepted metric >0.6), regression (accepted r 2 > 0.9); >80% viable parasites (top plateau); <20% killed parasites (bottom plateau), hill slope ∼1.

[3] = system: Immature gametocytes (>90% stage II/III); experiment: microbe, parasite or virus in culture; type: cell-based, Plasmodium falciparum; conditions: 48 h drug pressure; for % Inhibition, immature gametocytes: maximum inhibition at 10 μM
Protocol: as §1, §2

PfK1 = experiment: microbe, parasite or virus in culture; type: cell-based, Plasmodium falciparum; conditions: MDR K1, ABS, pLDH, 48 h incubation; read-out: PfK1 IC50 ± SEM
From the text: (§3) This side chain is also present in the well-known antiplasmodial agent, FQ.
(§4) Test samples were screened in technical duplicate or triplicate, for three or four biological replicates, for their in vitro blood stage antiplasmodial activity against both the drug-sensitive (NF54) and multidrug-resistant (K1) strains of . Continuous in vitro cultures of asexual erythrocyte stages of were maintained using a modified method of Trager and Jensen. A quantitative assessment of the in vitro antiplasmodial activity was determined via the parasite lactate dehydrogenase (pLDH) assay, using a modified method described by Makler and Hinrichs.
(§5) The test samples were prepared to a 20 mg/mL stock solution in 100% DMSO. Stock solutions were stored at −20 °C. Further dilutions were prepared in complete medium on the day of the experiment. […] Chloroquine diphosphate (CQDP) was used as the reference drug in all experiments. Test samples were tested at a starting concentration of either 100 μg/mL, 50 μg/mL, 10 μg/mL, or 1 μg/mL, which was then serially diluted 2-fold, in complete medium, to give 10 concentrations. The same dilution technique was used for all samples. […] The IC50 values were obtained from full dose–response curves, using a nonlinear dose–response curve fitting analysis, via GraphPad Prism v.5 software.

PfNF54 = experiment: In vitro ABS antiplasmodial activity, pLDH assay, drug-sensitive NF54; type: cell-based, Plasmodium falciparum; conditions: drug-sensitive NF54, ABS, pLDH, 48 h incubation; read-out: PfNF54 IC50 ± SEM
From the text: as §3, §4, §5

Compound: Cc1ccc2c(c1)nc(-[c-]1cccc1)n2CCCNc1ccnc2cc(Cl)ccc12.[Fe+2].c1cc[cH-]c1 [Complex C1, 7-chloro-N-(3-(5-(methyl)-2-ferrocenyl-1H-benzo[d]imidazole-1-yl)propyl)quinolin-4-amine]
- Hydroxyl radical generation (fluorescence intensity over time) [1]: no changes in the fluorescence intensity
- IC50 (β-hematin formation): 7.26 µM
- % Inhibition, mature gametocytes [2]: 7%
- % Inhibition, immature gametocytes [3]: 3%
- IC50 (PfK1): 6.29 ± 0.51 µM
- IC50 (PfNF54): 9.91 ± 0.71 µM

Compound: Cc1ccc2c(c1)nc(-[c-]1cccc1CN(C)C)n2CCCNc1ccnc2cc(Cl)ccc12.[Fe+2].c1cc[cH-]c1 (centres unmarked) [Complex C3, 7-Chloro-N-(3-(5-methyl-2-(2-N,N-dimethylaminomethyl)ferrocenyl-1H-benzo[d]-imidazole-1-yl)propyl) Quinoline-4-amine]
- Hydroxyl radical generation (fluorescence intensity over time) [1]: produce hydroxyl radicals
- IC50 (β-hematin formation): 5.42 µM
- IC50 ([2]; read-out: IC50 ± S.E., mature gametocytes): 7.27 µM
- % Inhibition, mature gametocytes [2]: 99%
- IC50 ([3]; read-out: IC50 ± S.E., immature gametocytes): 2.35 µM
- % Inhibition, immature gametocytes [3]: 88%
- IC50 (PfK1): 0.11 µM and 0.113 µM
- IC50 (PfNF54): 0.025 ± 0.001 µM
